Experimental findings from patent publication US10660877B2 (BRISTOL-MYERS SQUIBB COMPANY, priority 2016, dated 2020) are described below.

As usually defined, the IC50 is the concentration that inhibits the measured activity by half.

Read-outs that look alike come from different tables or passages of the source.

For experiment [1], the target named is human TLR7 (Homo sapiens (Human), UniProt Q9NYK1). The experiment can be described thus: TLR7 inhibition reporter assay (HEK-Blue cells, SEAP reporter, gardiquimod stimulation). Format: cell-based. For orientation: In a reporter assay the amount or activity of a reporter protein is the signal.
Chain of human TLR7 (Q9NYK1 27-1049): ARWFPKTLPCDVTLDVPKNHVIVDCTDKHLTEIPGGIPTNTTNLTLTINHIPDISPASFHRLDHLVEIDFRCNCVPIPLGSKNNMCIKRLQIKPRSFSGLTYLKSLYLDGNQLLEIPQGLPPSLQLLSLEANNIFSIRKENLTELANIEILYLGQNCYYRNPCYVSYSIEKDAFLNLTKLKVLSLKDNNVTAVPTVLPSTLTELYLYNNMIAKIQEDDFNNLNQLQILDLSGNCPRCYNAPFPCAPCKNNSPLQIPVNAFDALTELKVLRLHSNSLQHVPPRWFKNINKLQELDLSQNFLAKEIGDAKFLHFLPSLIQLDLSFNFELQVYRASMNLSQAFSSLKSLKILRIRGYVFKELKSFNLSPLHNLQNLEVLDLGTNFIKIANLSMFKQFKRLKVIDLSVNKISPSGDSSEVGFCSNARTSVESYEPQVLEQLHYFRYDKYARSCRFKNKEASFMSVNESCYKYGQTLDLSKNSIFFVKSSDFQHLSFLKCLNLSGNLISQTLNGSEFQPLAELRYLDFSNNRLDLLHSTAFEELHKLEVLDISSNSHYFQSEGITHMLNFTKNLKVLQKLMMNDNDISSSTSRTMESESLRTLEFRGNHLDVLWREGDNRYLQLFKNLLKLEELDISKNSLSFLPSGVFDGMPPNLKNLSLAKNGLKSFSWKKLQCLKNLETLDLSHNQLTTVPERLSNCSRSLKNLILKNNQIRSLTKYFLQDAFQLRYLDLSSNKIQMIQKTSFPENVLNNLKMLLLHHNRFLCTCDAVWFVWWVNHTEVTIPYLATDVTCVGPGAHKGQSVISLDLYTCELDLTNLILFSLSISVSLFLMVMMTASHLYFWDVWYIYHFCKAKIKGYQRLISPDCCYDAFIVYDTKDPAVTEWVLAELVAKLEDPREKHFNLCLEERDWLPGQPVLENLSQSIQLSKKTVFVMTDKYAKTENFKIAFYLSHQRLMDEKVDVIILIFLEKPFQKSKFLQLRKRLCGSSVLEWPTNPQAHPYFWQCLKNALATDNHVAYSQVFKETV
The target in experiment [2] is human TLR9 (Homo sapiens (Human), UniProt Q9NR96). As to the kind of experiment: TLR9 inhibition reporter assay (HEK-Blue cells, SEAP reporter, ODN2006 stimulation).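 Also: compounds tested over 0.05 nM to 50 µM, 22 h incubation, inhibition taken as SEAP signal drop from agonist plus DMSO wells toward a known inhibitor control.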
Chain of human TLR9 (Q9NR96 26-1032): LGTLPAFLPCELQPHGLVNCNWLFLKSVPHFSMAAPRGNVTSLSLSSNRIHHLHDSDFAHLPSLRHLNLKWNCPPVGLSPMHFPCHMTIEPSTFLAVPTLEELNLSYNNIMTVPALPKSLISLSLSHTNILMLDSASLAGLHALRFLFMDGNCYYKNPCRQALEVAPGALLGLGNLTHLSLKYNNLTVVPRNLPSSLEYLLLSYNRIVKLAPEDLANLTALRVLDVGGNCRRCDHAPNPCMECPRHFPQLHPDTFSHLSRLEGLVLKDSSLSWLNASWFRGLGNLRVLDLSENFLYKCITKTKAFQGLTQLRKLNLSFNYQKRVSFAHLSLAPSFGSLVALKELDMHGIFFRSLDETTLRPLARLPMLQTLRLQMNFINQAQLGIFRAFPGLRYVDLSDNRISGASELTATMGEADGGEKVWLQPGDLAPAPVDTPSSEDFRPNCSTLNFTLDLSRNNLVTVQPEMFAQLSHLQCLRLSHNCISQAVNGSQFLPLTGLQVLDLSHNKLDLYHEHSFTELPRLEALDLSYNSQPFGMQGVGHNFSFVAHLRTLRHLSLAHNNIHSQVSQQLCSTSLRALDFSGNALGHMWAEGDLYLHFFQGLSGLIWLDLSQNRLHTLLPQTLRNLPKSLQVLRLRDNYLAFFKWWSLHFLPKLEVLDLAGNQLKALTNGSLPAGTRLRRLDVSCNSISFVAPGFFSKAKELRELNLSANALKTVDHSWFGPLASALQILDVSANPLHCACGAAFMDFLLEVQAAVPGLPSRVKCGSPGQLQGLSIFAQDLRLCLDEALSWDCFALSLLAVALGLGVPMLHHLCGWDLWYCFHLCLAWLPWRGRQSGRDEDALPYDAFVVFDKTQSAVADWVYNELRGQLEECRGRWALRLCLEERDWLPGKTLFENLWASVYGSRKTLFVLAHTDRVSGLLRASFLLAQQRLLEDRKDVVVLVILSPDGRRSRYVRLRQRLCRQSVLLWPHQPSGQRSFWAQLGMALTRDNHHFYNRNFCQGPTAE
Experiment [3] concerns the target human TLR8 (Homo sapiens (Human), UniProt Q9NR97). The experiment can be described thus: TLR8 inhibition reporter assay (HEK-Blue cells, SEAP reporter, R848 stimulation).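 Also: compounds tested from 0.05 nM to 50 µM, 22 h at 37 °C, SEAP measured with HEK-Blue Detection, inhibition relative to agonist plus DMSO versus a known inhibitor.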
The mark [4] stands for this setting: HEK-Blue cells overexpressing human TLR7, gardiquimod 7.5 μM.
[5] abbreviates: read-out: TLR9 IC50, HEK-Blue cells overexpressing human TLR9, ODN2006 5 nM.
Where [6] appears, read: read-out: TLR8 IC50, HEK-Blue cells overexpressing human TLR8, R848 15.9 μM.

Chain of human TLR8 (Q9NR97 27-1041): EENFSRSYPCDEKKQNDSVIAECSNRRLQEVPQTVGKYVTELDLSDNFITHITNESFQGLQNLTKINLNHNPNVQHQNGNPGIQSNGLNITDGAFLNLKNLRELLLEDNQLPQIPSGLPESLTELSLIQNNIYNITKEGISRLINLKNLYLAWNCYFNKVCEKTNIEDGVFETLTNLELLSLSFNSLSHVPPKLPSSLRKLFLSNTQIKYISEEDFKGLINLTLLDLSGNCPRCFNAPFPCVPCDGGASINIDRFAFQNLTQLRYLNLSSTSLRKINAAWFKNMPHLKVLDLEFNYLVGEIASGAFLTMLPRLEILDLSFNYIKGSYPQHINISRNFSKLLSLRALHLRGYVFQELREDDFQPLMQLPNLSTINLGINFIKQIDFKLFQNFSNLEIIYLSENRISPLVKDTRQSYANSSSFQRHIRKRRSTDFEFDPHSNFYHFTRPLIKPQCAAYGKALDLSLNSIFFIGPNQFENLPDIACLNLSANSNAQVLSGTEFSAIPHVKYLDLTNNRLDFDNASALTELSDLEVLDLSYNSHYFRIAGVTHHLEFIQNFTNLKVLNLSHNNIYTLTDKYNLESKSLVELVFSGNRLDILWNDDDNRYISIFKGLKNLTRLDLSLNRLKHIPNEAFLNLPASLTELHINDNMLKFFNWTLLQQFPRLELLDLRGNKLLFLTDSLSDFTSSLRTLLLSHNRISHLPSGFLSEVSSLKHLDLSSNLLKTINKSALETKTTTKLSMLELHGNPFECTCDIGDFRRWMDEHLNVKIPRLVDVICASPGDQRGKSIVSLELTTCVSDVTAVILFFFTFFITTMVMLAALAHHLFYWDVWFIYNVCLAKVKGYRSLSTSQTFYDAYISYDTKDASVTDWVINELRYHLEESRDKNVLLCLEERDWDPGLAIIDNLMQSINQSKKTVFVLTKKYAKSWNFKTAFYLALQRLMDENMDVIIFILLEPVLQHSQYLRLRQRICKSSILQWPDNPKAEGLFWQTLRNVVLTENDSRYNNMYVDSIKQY

As to `CC(=O)N1CCC(c2cc3c(C(C)C)c(-c4cc(C)nc(C)c4)[nH]c3cc2F)CC1` [Example 829, 1-(4-(2-(2,6-dimethylpyridin-4-yl)-6-fluoro-3-isopropyl-1H-indol-5-yl)piperidin-1-yl)ethan-1-one], the IC50 in experiment [1] (HEK-Blue cells, gardiquimod 7.5 μM) amounted to 17.5 nM; in experiment [2] (read-out: TLR9 IC50, HEK-Blue cells, ODN2006 5 nM) it was 3070 nM; in experiment [3] (read-out: TLR8 IC50, HEK-Blue cells, R848 15.9 μM), 63.4 nM.
Consider `Cc1cc(-c2[nH]c3ccc(C4CCN(CC5CC5)CC4)cc3c2C(C)C)cc(C)n1` [Example 474, 5-(1-(cyclopropylmethyl)piperidin-4-yl)-2-(2,6-dimethylpyridin-4-yl)-3-isopropyl-1H-indole], for which the IC50 was 2.5 nM in experiment [1] (setting [4]), 506 nM in experiment [2] (setting [5]) and 3.2 nM in experiment [3] (setting [6]).
On to `Cc1cc(-c2[nH]c3ccc(C4CCNCC4)cc3c2C(C)C(F)(F)F)cc(C)n1` (stereo not drawn) [Example 92, 2-(2,6-dimethylpyridin-4-yl)-5-(piperidin-4-yl)-3-(1,1,1-trifluoropropan-2-yl)-1H-indole], for which the IC50 was 0.6 nM in experiment [1] (setting [4]), 446 nM in experiment [2] (setting [5]) and 5.2 nM in experiment [3] (setting [6]).
For the compound `Cc1nccc(-c2[nH]c3ccc(C4CCNCC4)cc3c2C(C)C)c1F` [Example 53, 2-(3-fluoro-2-methylpyridin-4-yl)-3-isopropyl-5-(piperidin-4-yl)-1H-indole], the IC50 in experiment [1] (setting [4]) is 2.9 nM; in experiment [2] (setting [5]), 2300 nM; in experiment [3] (setting [6]), 1.2 nM.
The matching figures for `Cc1cc(-c2[nH]c3ccc(C4CCN(C(=O)C5CCOC5)CC4)cc3c2C(C)C)ccn1` (stereo not drawn) [Example 599, (4-(3-isopropyl-2-(2-methylpyridin-4-yl)-1H-indol-5-yl)piperidin-1-yl)(tetrahydrofuran-3-yl)methanone]: 18.5 nM, 43800 nM and 178 nM.
Turning to `Cc1cc(-c2[nH]c3ccc(C4CCN(C(=O)CN5CCCC(C)C5)CC4)cc3c2C(C)C)cc(C)n1` (stereo not drawn) [Example 378, 1-(4-(2-(2,6-dimethylpyridin-4-yl)-3-isopropyl-1H-indol-5-yl)piperidin-1-yl)-2-(3-methylpiperidin-1-yl)ethan-1-one], the IC50 in experiment [1] (setting [4]) is 1.7 nM; in experiment [2] (setting [5]) it was 389 nM; in experiment [3] (setting [6]), 11.8 nM.
The matching figures for `Cc1cc(-c2[nH]c3ccc(C4CCN(C(=O)Cn5ccnn5)CC4)cc3c2C(C)C)cc(C)n1` [Example 158, 1-(4-(2-(2,6-dimethylpyridin-4-yl)-3-isopropyl-1H-indol-5-yl)piperidin-1-yl)-2-(1H-1,2,3-triazol-1-yl)ethan-1-one]: 6 nM, 5720 nM and 85.4 nM.
The matching figures for `Cc1cc(-c2[nH]c3ccc(C4CCN(Cc5c[nH]nn5)CC4)cc3c2C(C)C)c(F)cn1` [Example 691]: 7 nM, 2570 nM and 2.6 nM.
The like results for `Cc1cc(-c2[nH]c3ccc(C4CCN(C(=O)CCN(C)C)CC4)cc3c2C(C)C)ccn1` [Example 578, 3-(dimethylamino)-1-(4-(3-isopropyl-2-(2-methylpyridin-4-yl)-1H-indol-5-yl)piperidin-1-yl)propan-1-one] were, in that order, 7.1 nM, 722 nM and 5.7 nM.
For the compound `CCc1c(-c2ccnc(C)c2)[nH]c2ccc(C3CCN(C[C@@H]4CCNC4)CC3)cc12` [Example 739, (R)-3-ethyl-2-(2-methylpyridin-4-yl)-5-(1-(pyrrolidin-3-ylmethyl)piperidin-4-yl)-1H-indole], the IC50 was found to be 120 nM in experiment [1] (setting [4]), 96 nM in experiment [2] (setting [5]) and 8.2 nM in experiment [3] (setting [6]).
The like results for `Cc1cc(-c2[nH]c3ccc(C4CCN(CC(=O)NC5(C)CCOCC5)CC4)cc3c2C(C)C)cc(C)n1` [Example 267, 2-(4-(2-(2,6-dimethylpyridin-4-yl)-3-isopropyl-1H-indol-5-yl)piperidin-1-yl)-N-(4-methyltetrahydro-2H-pyran-4-yl)acetamide] were, in that order, 2.6 nM, 348 nM and 11.1 nM.
